Measured values as given in US7172889B2, “Biological compositions and methods for treatment of cervical cancer” (Ultra Biotech Limited, priority 2003, dated 2007).

Legend:
[1] = test system: cervical cancer cell line U14; test: Survival of mice of the 615 strain transplanted with cervical cancer cell line U14 (Example 7); format: in vivo; conditions: for Number of live animals remaining in the groups after 30 days of treatment: 30 mice per group, 2AY/2NY 0.5 ml oral per day, 2MMC 1.2 mg/kg/day s.c.
Experimental: The following example illustrates the benefit of a biological composition of the invention in a model of human cervical cancer in mice from the 615 strain. The survival time of mice after tumor injection and treatment was studied.
(§1) The biological composition comprising 10^8 cells per ml of activated and conditioned yeast cells of the strain Saccharomyces carlsbergensis Hansen strain AS2.444 was prepared by the methods described in Section 5.1 and subsections therein.
The animals were prepared in a similar manner as described in Section 6.1.
The mice injected with tumor cells were immediately divided into 4 experimental groups of ten mice per group and one control group. The four experimental groups were triplicated (i.e., using a total of 120 mice in the experimental groups). In group 2AY, the mice received 0.5 ml of the biological composition once per day. In group 2NY, the mice received 0.5 ml of the untreated yeast cells once per day. In group 2MMC, the mice were injected subcutaneously with 1.2 mg of mitomycin C (MMC) per kg body weight per day. In group 2CK1, the mice received 0.5 ml of physiological saline once per day.
The mice received the biological composition, untreated yeast cells, MMC or saline on the same day as the tumor cells were transplanted. The mice in group 2CK2 also started receiving saline on the same day as the other four groups. The biological composition, untreated yeast cells and saline were administered orally by a feeding tube and the MMC by subcutaneous injection for 30 consecutive days. The mice were observed over 6 months from the day of tumor inoculation and survival was recorded. The weight of the mice and the weight of the tumor were determined by standard techniques.

[2] = test system: cervical cancer cell line U14; test: Tumor growth in mice of the 615 strain transplanted with cervical cancer cell line U14 (Example 6); format: in vivo, mice from the 615 strain; conditions: U14 tumor-bearing 615 mice, 30 consecutive days of treatment, sacrificed on 31st day; AY/NY 0.3 ml oral once per day, MMC 0.8 mg/kg/day s.c.
Description: The following example illustrates the benefit of a biological composition of the invention in a model of human cervical cancer in mice from the 615 strain. The growth of the tumor in the mice was studied.
The cervical cancer cell line U14 was used in the model which closely resembles the human cervical cancer pathology. Detailed description of the use of cervical cancer cell line U14 can be found in Tao G. et al., 2001, Chin Med J. 114(6):623–7, which is incorporated herein by reference in its entirety.
as §1
The animals used to generate the cervical cancer cells for the experiments were female mice from the 615 strain (obtainable from the Chinese Academy of Military Medical Sciences, Beijing, China) having an average body weight of 20 to 22 gram and 4 to 6 months old. […]
The mice received the biological composition, untreated yeast cells, MMC or saline on the same day as the tumor cells were transplanted. […] The weight of the mice and the weight of the tumor were determined by standard techniques.

[3] = test system: cervical cancer cell line U27; test: Tumor growth in kun ming mice transplanted with cervical cancer cell line U27 (Example 8); format: in vivo, kun ming mouse; conditions: U27 tumor-bearing kun ming mice, 30 consecutive days of treatment, sacrificed on 31st day; AY/NY 0.3 ml oral once per day, VCR 3 mg/kg/day i.v.
Description: The following example illustrates the benefit of a biological composition of the invention in a kun ming mouse model of human cervical cancer. The growth of the tumor in the mice was studied.
The cervical cancer cell line U27 was used in the model which closely resembles the human cervical cancer pathology. Detailed description of the use of cervical cancer cell line U27 can be found in Qian S. S. et al., 1987, Zhongguo Yi Xue Ke Xue Yuan Xue Bao 9(1):33–7, which is incorporated herein by reference in its entirety.
as §1
The animals used to generate the cervical cancer cells for the experiments were female kun ming mouse (obtainable from the Chinese Academy of Military Medical Sciences, Beijing, China) having an average body weight of 20 to 22 gram and 5 to 6 months old. […]
The mice received the biological composition, untreated yeast cells, VCR or saline on the same day as the tumor cells were transplanted. […] The weight of the mice and the weight of the tumor were determined by standard techniques.

[4] = test system: cervical cancer cell line U27; test: Survival of kun ming mice transplanted with cervical cancer cell line U27 (Example 9); format: in vivo; conditions: for Number of live animals remaining in the groups after 30 days of treatment: 30 mice per group, 2AY/2NY 0.5 ml oral per day, 2VCR 4.5 mg/kg/day i.v.
Experimental: The following example illustrates the benefit of a biological composition of the invention in a kun ming mouse model of human cervical cancer. The survival time of mice after tumor injection and treatment was studied.
as §1
The animals were prepared in a similar manner as described in Section 8.1.
The mice injected with tumor cells were immediately divided into 4 experimental groups of ten mice per group and one control group. The four experimental groups were triplicated (i.e., using a total of 120 mice in the experimental groups). In group 2AY, the mice received 0.5 ml of the biological composition once per day. In group 2NY, the mice received 0.5 ml of the untreated yeast cells once per day. In group 2VCR, the mice were injected intravenously with 4.5 mg of […] (VCR) per kg body weight per day. In group 2CK1, the mice received 0.5 ml of physiological saline once per day.
The mice received the biological composition, untreated yeast cells, VCR or saline on the same day as the tumor cells were transplanted. The mice in group 2CK2 also started receiving saline on the same day as the other four groups. The biological composition, untreated yeast cells and saline were administered orally by a feeding tube and the VCR by intravenous injection for 30 consecutive days. The mice were observed over 6 months from the day of tumor inoculation and survival was recorded. The weight of the mice and the weight of the tumor were determined by standard techniques.

[5] = 0 month after cessation of treatment
[6] = 1 month after cessation of treatment
[7] = 2 months after cessation of treatment
[8] = 3 months after cessation of treatment
[9] = 4 months after cessation of treatment
[10] = 5 months after cessation of treatment
[11] = 6 months after cessation of treatment
[12] = surviving mice after 6 months observation, U14, 615 mice, 0.5 ml oral per day (2MMC 1.2 mg/kg/day s.c.) for 30 days
[13] = surviving mice after 6 months observation, U27, kun ming mice, 0.5 ml oral per day (2VCR 4.5 mg/kg/day i.v.) for 30 days

CO[C@@]12[C@H](COC(N)=O)C3=C(C(=O)C(C)=C(N)C3=O)N1C[C@@H]1N[C@@H]12 [MMC, mitomycin C]
Number of live animals remaining in the groups after 30 days of treatment [1, 5]: 30 | Number of live animals remaining in the groups after 30 days of treatment [1, 6]: 30 | Number of live animals remaining in the groups after 30 days of treatment [1, 7]: 24 | Number of live animals remaining in the groups after 30 days of treatment [1, 8]: 13 | Number of live animals remaining in the groups after 30 days of treatment [1, 9]: 0 | Number of live animals remaining in the groups after 30 days of treatment [1, 10]: 0 | Number of live animals remaining in the groups after 30 days of treatment [1, 11]: 0 | death during the experiment ([1]; observed over 6 months, 2NY 0.5 ml per day, 2MMC 1.2 mg/kg/day): all died during the experiment | mean weight of mice and standard deviation [1, 12]: all animals dead | mean weight of tumor nodules and standard deviation [1, 12]: all animals dead | mean weight of mice and standard deviation [2]: 19.3 ± 3.3 g | mean weight of tumor nodules and standard deviation [2]: 4.4 ± 2.23 mg

CC[C@]1(O)C[C@@H]2CN(CCc3c([nH]c4ccccc34)[C@@](C(=O)OC)(c3cc4c(cc3OC)N(C)[C@H]3[C@@](O)(C(=O)OC)[C@H](OC(C)=O)[C@]5(CC)C=CCN6CC[C@]43[C@@H]65)C2)C1 [VCR, vinblastine]
mean weight of mice and standard deviation [3]: 18.5 ± 3.7 g | mean weight of tumor nodules and standard deviation [3]: 4.77 ± 2.79 g | Number of live animals remaining in the groups after 30 days of treatment [4, 5]: 30 | Number of live animals remaining in the groups after 30 days of treatment [4, 6]: 30 | Number of live animals remaining in the groups after 30 days of treatment [4, 7]: 22 | Number of live animals remaining in the groups after 30 days of treatment [4, 8]: 17 | Number of live animals remaining in the groups after 30 days of treatment [4, 9]: 4 | Number of live animals remaining in the groups after 30 days of treatment [4, 10]: 0 | Number of live animals remaining in the groups after 30 days of treatment [4, 11]: 0 | death during the experiment ([4]; observed over 6 months, 2NY 0.5 ml per day, 2VCR 4.5 mg/kg/day): all died during the experiment | mean weight of mice and standard deviation [4, 13]: all animals dead | mean weight of tumor nodules and standard deviation [4, 13]: all animals dead
